Consider seven molecules from PubChem BioAssay (NCI).

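Step 1: Grow cells in 96-well plates. Step 2: Expose to compound for 48 hours at 5 concentrations. Step 3: Interpolate endpoints linearly; if unreached, use highest concentration. At the GI50, growth is halved. Definition used: TGI = concentration required for complete inhibition of growth.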

What all share (assay): NCI anticancer screen, dose series, 48 h
In assay [1] the test system is A498 renal.
The test system of assay [2] is HCC-2998 colon.
Assay [3] concerns MCF7 breast.
The subject of assay [4] is NCI-H460 lung.
Assay [5] deals with NCI-H522 lung.
Assay [6] concerns RPMI-8226 leukemia.
For assay [7], the system named is SK-MEL-28 melanoma.
Assay [8] has as its system SK-MEL-5 melanoma.
Assay [9] relates to SNB-75 CNS.
The subject of assay [10] is SW-620 colon.

As to `COc1cc(O)c(C(=O)/C=C/c2ccc(O)cc2)c(O)c1[C@@H]1C[C@H](CCc2ccc(O)cc2)O[C@H](c2ccc(O)cc2)C1`, the GI50 in [1] is 14 µM; in [2], 2.25 µM; in [3] it was 3.08 µM; in assay [4] it was 3 µM; in assay [5], 2.97 µM; in assay [6], 2.18 µM. Further, the GI50 is 3.83 µM in assay [7], 3.7 µM in [8], 2.59 µM in assay [9] and 2.23 µM in assay [10]. In addition, the TGI in assay [1] stood at 28.1 µM; in assay [2] it was 4.02 µM; in assay [3] it was 8.85 µM; in [4] it was 7.87 µM; in assay [5], 9.94 µM; in assay [6], 5 µM. Moreover, the TGI in [7] stood at 14.1 µM; in assay [8], 12.8 µM; in [9] it was 7.44 µM; in [10], 4.91 µM.
With `CCOC(=O)C(=Cc1ccc(Oc2ccccc2)cc1)C(=O)OCC`, the TGI was found to be 28.8 µM in assay [1]; 24 µM in [2]; 18.5 µM in assay [3]; 40.7 µM in assay [4]; 10.1 µM in assay [5]; 6.89 µM in assay [6]. In addition, the TGI in assay [7] is 7.49 µM; in assay [8], 3.9 µM; in assay [9], 11 µM; in [10], 5.9 µM.
Regarding `CN1c2ccccc2C(C)(C)C12C=Cc1cc(O)ccc1O2` (centres undefined), the GI50 in assay [1] was 2.39 µM; in [2], 4.22 µM; in assay [3], 3.52 µM; in [4], 2.28 µM; in assay [5], 3.6 µM; in [6], 1.71 µM. Moreover, the GI50 in [7] is 3.94 µM; in [8], 2.38 µM; in assay [9], 2.47 µM; in assay [10], 3.4 µM. The TGI in assay [1] was 6.3 µM; in assay [2] it was 9.47 µM; in assay [4], 6.45 µM; in [5] it was 24.9 µM; in [6], 4.91 µM; in [7], 15.5 µM. Further, the TGI in assay [8] was 9.94 µM; in assay [9] it was 8.4 µM; in [10], 13.8 µM.
Regarding `COc1ccc(Nc2c3ccccc3nc3ccccc23)cc1`, the GI50 in [1] is 0.421 µM; in [2], 1.92 µM; in assay [3], 0.409 µM; in assay [4], 0.479 µM; in [5] it was 1.13 µM; in assay [6], 1.26 µM. Also, the GI50 in assay [7] is 2.17 µM; in assay [8], 1.1 µM; in assay [9], 2.85 µM; in assay [10], 0.599 µM. In addition, the TGI in assay [1] stood at 10.5 µM; in [2], 11.2 µM; in [3], 13 µM; in assay [4], 6.2 µM; in assay [5], 15.7 µM; in [6] it was 4.66 µM. In addition, the TGI in assay [7] came out at 15.3 µM; in [8] it was 4.2 µM; in assay [9], 17.6 µM; in assay [10], 14.4 µM.
`CC(=Nc1ccccc1)C1=C(O)C(Cc2ccccc2)NC1=O` (centres undefined): the GI50 is 0.0307 µM in [1]; 0.0779 µM in assay [2]; 0.0367 µM in [3]; 0.0375 µM in [4]; 0.0216 µM in assay [5]; 0.0515 µM in [6]. The GI50 was 0.0712 µM in assay [7], 0.0446 µM in assay [8], 0.0246 µM in assay [9] and 0.0328 µM in assay [10]. The TGI in assay [1] is 0.259 µM; in [2], 0.64 µM; in assay [3], greater than 100 µM; in assay [4], 1.26 µM; in assay [5], 0.0645 µM; in assay [6], greater than 100 µM. Also, the TGI in assay [7] was greater than 100 µM; in [8], 2.63 µM; in [9], 0.0788 µM; in assay [10], greater than 100 µM.
Turning to `CC[C@@H](C(=O)[C@@H](C)[C@@H](O)[C@H](C)[C@@H]1O[C@@H]([C@@H](CC)C(=O)N(CC)CC)CC[C@@H]1C)C1O[C@]2(C=CC(=O)[C@]3(CC[C@@](C)([C@H]4CC[C@](O)(CC)[C@H](C)O4)O3)O2)[C@H](C)C[C@@H]1C` (some centres undefined), the GI50 is 2.25 µM in assay [1]; 1.97 µM in [2]; 2.41 µM in assay [3]; 2.11 µM in assay [4]; 2.02 µM in assay [5]; 2.12 µM in assay [6]. Further, the GI50 in assay [7] is 4.45 µM; in assay [8], 1.69 µM; in [9] it was 1.9 µM; in assay [10], 3.11 µM. Also, the TGI in [1] turned out to be 7.51 µM; in assay [2], 4.79 µM; in assay [3], 8.11 µM; in [4], 4.94 µM; in assay [5], 6.46 µM; in [6] it was 6.42 µM. The TGI in assay [7] came to 21.3 µM; in [8] it was 3.09 µM; in assay [9] it was 17.4 µM; in [10], 23.5 µM.
With `N#CSCC1CC(O)(c2ccccc2)CC(c2ccc(F)cc2)O1` (centres undefined), the GI50 in assay [1] is 1.9 µM; in [2], 4.02 µM; in [3], 2.64 µM; in assay [4], 2.08 µM; in assay [5] it was 1.4 µM; in [6] it was 1.64 µM. Further, the GI50 in [7] is 4.23 µM; in [8], 1.74 µM; in [9] it was 1.44 µM; in [10], 2.07 µM. In addition, the TGI stood at 4.1 µM in assay [1]; 17.6 µM in assay [2]; 8.33 µM in assay [3]; 4.34 µM in assay [4]; 3.1 µM in assay [5]; 4.65 µM in [6]. Further, the TGI in [7] stood at 15.4 µM; in assay [8], 3.26 µM; in assay [9] it was 3.24 µM; in assay [10], 3.74 µM.
